Measured values from patent US12358932B2, “Chemical compounds” (BORAH, INC., priority 2019, dated 2025).

molecular target: T1, Recombinant human PDE4B (Homo sapiens, UniProt Q07343); experiment: PDE4B Phosphodiesterase Assay; assay type: biochemical; set-up: key to Activity Note: PDE4: The (+) symbols identify a compound of the present disclosure with the noted target activity; +*: The (*) symbols indicate preferential activity, where the greater number identifies the most preferred compounds; +**: The (*) symbols indicate preferential activity, where the greater number identifies the most preferred compounds; +***: The (*) symbols indicate preferential activity, where the greater number identifies the most preferred compounds; settings: compound list; + = noted target activity
T1 construct: aa 305-end; GST (N); made in house; host or cells: Sf9 insect cells (baculovirus)
Protocol: The assay is based on the fluorescence polarization measuring AMP/GMP production as a result of the enzyme activity by displacement of Tracer binding to the AMP/GMP antibody. • Reaction Buffer: 10 mM Tris-HCl, pH 7.5, 5 mM MgCl2, 0.01% Brij 35, 1 mM DTT and 1% DMSO. • Enzyme: Recombinant human PDE4B (Gene Accession #NM_002600; aa 305-end) was expressed by baculovirus in Sf9 insect cells using an N-terminal GST tag. Mw=78 kDa. • Substrate: 1 μM cAMP • Detection: Transcreener® AMP2/GMP2 Antibody AMP2/GMP2 AlexaFluor 633 Tracer Reaction Procedure: • 1. Prepared indicated enzyme and substrate in freshly prepared Reaction Buffer • 2. Delivered enzyme solution into the reaction well • 3. Delivered compounds in 100% DMSO into the enzyme solution by Acoustic technology (Echo550; nanoliter range), incubated for 10 min at room temperature • 4. Delivered substrate solution into the reaction well to initiate the reaction • 5. Incubated for 1 h at room temperature • 6. Added detection mixture (Tracer and antibody in the stop buffer) to stop the reaction and incubated for 90 min with gentle mixing. The fluorescence polarization was measured at Ex/Em 620/688.
Data Analysis: The FP signals were converted into nM product based on an AMP/GMP standard curve and calculated % Enzyme activity relative to DMSO control by Excel. The curve fit was performed using GraphPad prism.

T1 sequence (Q07343 305-736 limits assumed): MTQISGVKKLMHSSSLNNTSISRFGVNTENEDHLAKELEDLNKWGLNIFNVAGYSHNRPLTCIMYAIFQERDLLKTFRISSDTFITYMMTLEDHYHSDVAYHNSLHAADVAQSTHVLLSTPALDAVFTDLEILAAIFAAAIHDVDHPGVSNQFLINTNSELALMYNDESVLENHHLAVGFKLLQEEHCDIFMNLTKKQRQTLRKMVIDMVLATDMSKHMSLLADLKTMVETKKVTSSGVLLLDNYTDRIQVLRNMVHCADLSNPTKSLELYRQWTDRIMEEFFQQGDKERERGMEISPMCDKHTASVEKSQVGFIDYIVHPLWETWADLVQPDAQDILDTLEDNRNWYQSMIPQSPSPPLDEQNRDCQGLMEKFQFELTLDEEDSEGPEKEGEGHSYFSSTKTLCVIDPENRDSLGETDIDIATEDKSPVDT

Activity Note: PDE4, +:
Cc1cnc(Nc2ccc3c(c2)COB3O)nc1SC1CCCCC1 [5-((4-(cyclohexylthio)-5-methylpyrimidin-2-yl)amino)benzo[c][1,2]oxaborol-1(3H)-ol], Cc1cnc(Nc2ccc3c(c2)COB3O)nc1Nc1ccccc1OC(F)(F)F [5-((5-methyl-4-((2-(trifluoromethoxy)phenyl)amino)pyrimidin-2-yl)amino)benzo[c][1,2]oxaborol-1(3H)-ol], OB1OCc2cc(Nc3ncc(C(F)(F)F)c(NC4CCCCC4)n3)ccc21 [5-((4-(cyclohexylamino)-5-(trifluoromethyl)pyrimidin-2-yl)amino)benzo[c][1,2]oxaborol-1(3H)-ol], Cc1cnc(Nc2ccc3c(c2)COB3O)nc1NC(CCO)CCO [3-((2-((1-hydroxy-1,3-dihydrobenzo[c][1,2]oxaborol-5-yl)amino)-5-methylpyrimidin-4-yl)amino)pentane-1,5-diol], OB1OCc2cc(Nc3ncc(Cl)c(NCCC4CC4)n3)ccc21 [5-((5-chloro-4-((2-cyclopropylethyl)amino)pyrimidin-2-yl)amino)benzo[c][1,2]oxaborol-1(3H)-ol], CCC(CC)Nc1nc(Nc2cc(F)c3c(c2)COB3O)ncc1C(F)(F)F [7-fluoro-5-((4-(pentan-3-ylamino)-5-(trifluoromethyl)pyrimidin-2-yl)amino)benzo[c][1,2]oxaborol-1(3H)-ol], CCC(CC)Nc1nc(Nc2ccc3c(c2)COB3O)ncc1C#N [2-((1-hydroxy-1,3-dihydrobenzo[c][1,2]oxaborol-5-yl)amino)-4-(pentan-3-ylamino) pyrimidine-5-carbonitrile], CCC(CO)Nc1nc(Nc2ccc3c(c2)COB3O)ncc1Cl (centres unmarked) [5-((5-chloro-4-((1-hydroxybutan-2-yl)amino)pyrimidin-2-yl)amino)benzo[c][1,2]oxaborol-1(3H)-ol], Cc1ccccc1Nc1nc(Nc2ccc3c(c2)COB3O)ncc1C [5-((5-methyl-4-(o-tolylamino)pyrimidin-2-yl)amino)benzo[c][1,2]oxaborol-1(3H)-ol], Cc1cnc(Nc2ccc3c(c2)COB3O)nc1NC1CCC(C)CC1 (centres unmarked) [5-((5-methyl-4-((4-methylcyclohexyl)amino)pyrimidin-2-yl)amino)benzo[c][1,2]oxaborol-1(3H)-ol], Cc1cnc(Nc2ccc3c(c2)COB3O)nc1NC1CCOC(O)C1 (centres unmarked) [5-((4-((2-hydroxytetrahydro-2H-pyran-4-yl)amino)-5-methylpyrimidin-2-yl)amino)benzo[c][1,2]oxaborol-1(3H)-ol], CCC(CC)Nc1nc(Nc2cc(F)c3c(c2)COB3O)ncc1C [7-fluoro-5-((5-methyl-4-(pentan-3-ylamino)pyrimidin-2-yl)amino)benzo[c][1,2]oxaborol-1(3H)-ol], CCCC(CC)Nc1nc(Nc2ccc3c(c2)COB3O)ncc1F (centres unmarked) [5-((5-fluoro-4-(hexan-3-ylamino)pyrimidin-2-yl)amino)benzo[c][1,2]oxaborol-1(3H)-ol], Cc1cnc(Nc2ccc3c(c2)COB3O)nc1OC1CCCC1 [5-((4-(cyclopentyloxy)-5-methylpyrimidin-2-yl)amino)benzo[c][1,2]oxaborol-1(3H)-ol], CCC(CC)Sc1nc(Nc2ccc3c(c2)COB3O)ncc1C [5-((5-methyl-4-(pentan-3-ylthio)pyrimidin-2-yl)amino)benzo[c][1,2]oxaborol-1(3H)-ol], OB1OCc2cc(Nc3ncc(Cl)c(NC4CCCC4)n3)ccc21 [5-((5-chloro-4-(cyclopentylamino)pyrimidin-2-yl)amino)benzo[c][1,2]oxaborol-1(3H)-ol], CSc1nc(Nc2ccc3c(c2)COB3O)ncc1Cl [5-((5-chloro-4-(methylthio)pyrimidin-2-yl)amino)benzo[c][1,2]oxaborol-1(3H)-ol], Cc1cnc(Nc2ccc3c(c2)COB3O)nc1Nc1ccccc1C(F)(F)F [5-((5-methyl-4-((2-(trifluoromethyl)phenyl)amino)pyrimidin-2-yl)amino)benzo[c][1,2]oxaborol-1(3H)-ol], OB1OCc2cc(Nc3ncc(Cl)c(NC4CCCC4)n3)cc(F)c21 [5-((5-chloro-4-(cyclopentylamino)pyrimidin-2-yl)amino)-7-fluorobenzo[c][1,2]oxaborol-1(3H)-ol], OB1OCc2cc(Nc3ncc(C(F)(F)F)c(NCCC4CC4)n3)ccc21 [5-((4-((2-cyclopropylethyl)amino)-5-(trifluoromethyl)pyrimidin-2-yl)amino)benzo[c][1,2]oxaborol-1(3H)-ol], CCCNc1nc(Nc2ccc3c(c2)COB3O)ncc1C(F)(F)F [5-((4-(propylamino)-5-(trifluoromethyl)pyrimidin-2-yl)amino)benzo[c][1,2]oxaborol-1(3H)-ol], Cc1cnc(Nc2ccc3c(c2)COB3O)nc1NCc1ccccc1 [5-((4-(benzylamino)-5-methylpyrimidin-2-yl)amino)benzo[c][1,2]oxaborol-1(3H)-ol], CCC(Nc1nc(Nc2ccc3c(c2)COB3O)ncc1C)c1ccccc1 (centres unmarked) [5-((5-methyl-4-((1-phenylpropyl)amino)pyrimidin-2-yl)amino)benzo[c][1,2]oxaborol-1(3H)-ol], Cc1cnc(Nc2ccc3c(c2)COB3O)nc1Nc1cccc2c1C(=O)N(CCF)C2 [2-(2-fluoroethyl)-7-((2-((1-hydroxy-1,3-dihydrobenzo[c][1,2]oxaborol-5-yl)amino)-5-methylpyrimidin-4-yl)amino)isoindolin-1-one], Cc1cnc(Nc2ccc3c(c2)COB3O)nc1NCCC1CC1 [5-((4-((2-cyclopropylethyl)amino)-5-methylpyrimidin-2-yl)amino)benzo[c][1,2]oxaborol-1(3H)-ol], CCCC(CC)Nc1nc(Nc2ccc3c(c2)COB3O)ncc1Cl (centres unmarked) [5-((5-chloro-4-(hexan-3-ylamino)pyrimidin-2-yl)amino)benzo[c][1,2]oxaborol-1(3H)-ol], OB1OCc2cc(Nc3ncc(F)c(NCc4ccccc4)n3)ccc21 [5-((4-(benzylamino)-5-fluoropyrimidin-2-yl)amino)benzo[c][1,2]oxaborol-1(3H)-ol], CCc1ccccc1Nc1nc(Nc2ccc3c(c2)COB3O)ncc1C [5-((4-((2-ethylphenyl)amino)-5-methylpyrimidin-2-yl)amino)benzo[c][1,2]oxaborol-1(3H)-ol], Cc1cnc(Nc2ccc3c(c2)COB3O)nc1Nc1ccccc1F [5-((4-((2-fluorophenyl)amino)-5-methylpyrimidin-2-yl)amino)benzo[c][1,2]oxaborol-1(3H)-ol], Cc1cnc(Nc2ccc3c(c2)COB3O)nc1NC(CCF)CCF [5-((4-((1,5-difluoropentan-3-yl)amino)-5-methylpyrimidin-2-yl)amino)benzo[c][1,2]oxaborol-1(3H)-ol], OB1OCc2cc(Nc3ncc(F)c(NC4CCCCC4)n3)ccc21 [5-((4-(cyclohexylamino)-5-fluoropyrimidin-2-yl)amino)benzo[c][1,2]oxaborol-1(3H)-ol], Cc1cnc(Nc2ccc3c(c2)COB3O)nc1OC1CCCCC1 [5-((4-(cyclohexyloxy)-5-methylpyrimidin-2-yl)amino)benzo[c][1,2]oxaborol-1(3H)-ol], COc1ccccc1Nc1nc(Nc2ccc3c(c2)COB3O)ncc1C [5-((4-((2-methoxyphenyl)amino)-5-methylpyrimidin-2-yl)amino)benzo[c][1,2]oxaborol-1(3H)-ol], Cc1cnc(Nc2ccc3c(c2)COB3O)nc1NC1CCC1 [5-((4-(cyclobutylamino)-5-methylpyrimidin-2-yl)amino)benzo[c][1,2]oxaborol-1(3H)-ol], CCC(C)Nc1nc(Nc2ccc3c(c2)COB3O)ncc1C (centres unmarked) [5-((4-(sec-butylamino)-5-methylpyrimidin-2-yl)amino)benzo[c][1,2]oxaborol-1(3H)-ol], Cc1cnc(Nc2ccc3c(c2)COB3O)nc1NCc1ccc(Cl)cc1 [5-((4-((4-chlorobenzyl)amino)-5-methylpyrimidin-2-yl)amino)benzo[c][1,2]oxaborol-1(3H)-ol], OB1OCc2cc(Nc3ncc(F)c(NC4CCCC4)n3)ccc21 [5-((4-(cyclopentylamino)-5-fluoropyrimidin-2-yl)amino)benzo[c][1,2]oxaborol-1(3H)-ol], Cc1cnc(Nc2ccc3c(c2)COB3O)nc1NCc1cccc(Cl)c1 [5-((4-((3-chlorobenzyl)amino)-5-methylpyrimidin-2-yl)amino)benzo[c][1,2]oxaborol-1(3H)-ol]
